Experimental data reported in US20220152067A1, “Cancer Immunotherapy Adjuvant” (lndustry-Academic Cooperation Foundation, Yonsei University, priority 2019, published 2022).

Tests used:
Format in all cases: in vivo, C57BL/6 male mice
[1] = system: MC38 colorectal cancer cell line; experiment: Tumor weight of mice after MC38 injection and drug administration; settings: MC38 model, 7 days; statistically proved by one-way ANOVA
Protocol: (§1) MC-38 colorectal cancer cells (5×10^5 cells) were injected subcutaneously into 7-week-old C57BL/6 male mice. Seven days after the colorectal cancer cells were injected, the average tumor volume of the subcutaneous MC-38 tumor was about 40 mm^3. The injection method of the mouse tumor as described above was equally applied to all four groups below. Afterwards, the experimental group was divided into the vehicle administration control group, SAC-1004 and anti-PD1 co-administration group, SAC-1004 single administration group, and anti-PD1 single administration group, and the experiment was performed.
(§2) Specifically, the administration was performed as follows. SAC-1004, a vascular leak inhibitor, was dissolved in DMSO in PBS, and 1 mg per kg of mouse body weight was administered daily by intravenous injection. Anti-PD1, an immune checkpoint inhibitor, was administered at the concentration of 200 ng/mouse by intraperitoneal injection 3 times a week along with 200 ng of rat igG2a. […]
(§3) In a total of 4 groups consisting of control group, SAC-1004 and anti-PD1 co-administration group, SAC-1004 single administration group, and anti-PD1 single administration group, the tumor weight of mice treated with the drug for 7 days as described above in the experimental animal model was analyzed.

[2] = Spleen size and weight of mice after MC38 injection and drug administration; settings: MC38 model, 7 days; not statistically significant by one-way ANOVA
Protocol: as §1, §2
as §3, with “spleen size” for “tumor weight”

VE-cadherin = experiment: Adherent junction expression in mouse tumor (IHC staining); settings: drug administered for 14 days
Protocol: as §1
Specifically, the administration was performed as follows. SAC-1004, a vascular leak inhibitor, was dissolved in DMSO in PBS, and 1 mg per kg of mouse body weight was administered daily by intravenous injection. […]
In a total of 4 groups consisting of control group, SAC-1004 and anti-PD1 co-administration group, SAC-1004 single administration group, and anti-PD1 single administration group, the expression of adherent junction in the tumor of the mouse treated with the drug as described above in the experimental animal model was analyzed except that the drug was administered for 14 days by daily administration of SAC-1004 for 7 days and administration of anti-PD1 3 times a week. […]

[3] = system: MC38 colorectal cancer cell line; experiment: Tumor size change in mice after MC38 colorectal cancer cell line injection and drug administration; settings: subcutaneous MC-38 tumor, drug administration for 7 days; statistically proved by two-way ANOVA
Protocol: as §1, §2
as §3, with “size changes according to” for “weight of mice treated with”, “drug administration” for “drug”, “were” for “was”

COC(=O)CCC/C=C(\C)[C@H]1CCC2C3CC=C4C[C@@H](OC5C=C[C@H](OC(C)=O)[C@@H](COC(C)=O)O5)CC[C@]4(C)C3CC[C@@]21C (stereo partly shown) [SAC-1004]
tumor weight [1]: lower than that of the anti-PD1 single administration group mice
spleen weight [2]: higher than that of the control group mice
ratio of intratumoral VE-cadherin (VE-cadherin): increased
tumor size [3]: reduced compared to that in the control group
